Laboratory results: paper PMC8197120, “Synthesis and Characterization of Some New Quinoxalin-2(1H)one and 2-Methyl-3H-quinazolin-4-one Derivatives Targeting the Onset and Progression of CRC with SAR, Molecular Docking, and ADMET Analyses” (Molecules, 2021)
Values after ≈ are worked out from the molar mass of the structure shown. Like-named read-outs stand apart in the source and are kept apart here.

Key:
[1] = target: purified recombinant human LDHA protein (Homo sapiens, UniProt P00338); test: Lactate dehydrogenase-A (LDHA) inhibition assay, NADH consumption; format: biochemical; settings: for IC50 / inhibition at 100 µg/mL / inhibition at 200 µg/mL: LDHA; for inhibition at 100 µg/mL: read-out: Mean Inhibition % at 100 µg/ml ± SD; for inhibition at 200 µg/mL: read-out: Mean Inhibition % at 200 µg/ml ± SD; for fold by which (6e) is more potent than the labelled compound (LDHA inhibition efficiency): comparator 6e
Method: LDHA inhibition activity was investigated by measuring the amounts of consumed NADH as described by Kim and his group. Briefly, different concentrations of each compound (50, 100, 200, and 300 µg) were incubated in buffer containing 20 mM of HEPES-K+ (pH 7.2), 20 μM of NADH, 2 mM of pyruvate, and 10 ng of purified recombinant human LDHA protein for 10 min. The fluorescence of NADH, which has an excitation wavelength of 340 nm and emission wavelength of 460 nm, was detected using a Spectrofluorometer.

[2] = system: Escherichia coli (ATCC 25922); test: Antibacterial activity, CFU viability; format: cell-based; settings: ATCC25922, mean of two determinations, read-out: Mean IC50 ± SD
Method: (§1) Pure standard microbial isolates collected from King Khaled University Hospital were tested in this study, including Enterococcus faecalis (ATCC 29122) as Gram positive bacteria and Escherichia coli (ATCC 25922) and Bacteroides fragilis (ATCC 25285) as Gram negative bacteria. Fresh cultures of each microorganism were grown on nutrient agar plates (Oxoid, UK), of which small inoculums were suspended in 5 mL nutrient broth for bacterial suspension preparation of 0.5MacFarland. Bacterial viability was investigated by estimating the colony-forming unit (CFU) ability of the bacteria incubated at different time intervals without or with appropriate amounts of the compound that were mixed with 2 × 10^7 CFU/mL in sterile BHI broths and were incubated under shaking for 60 min at 37 °C. Samples were serially diluted into sterile BHI broths, streaked onto media agar plates, and incubated for 24 h at 37 °C. The antibacterial potency of tested compounds was expressed as the residual number of CFU with reference to the initial inoculums. […] Ampicillin (1 mg/mL) was used as a positive standard reference.

[3] = system: Bacteroides fragilis (ATCC 25285); test: Antibacterial activity, CFU viability; format: cell-based; settings: ATCC25285, mean of two determinations, read-out: Mean IC50 ± SD
Method: as §1

[4] = system: Enterococcus faecalis (ATCC 29122); test: Antibacterial activity, CFU viability; format: cell-based; settings: ATCC29122, mean of two determinations, read-out: Mean IC50 ± SD
Method: as §1

COX-2 = target: T1, COX-2 (Homo sapiens, UniProt P35354); test: Cyclooxygenase (COX-2) inhibition assay (Cayman kit 701080); format: biochemical; settings: for inhibition at 100 µg/mL: read-out: Mean Inhibition % at 100 µg/ml ± SD; for inhibition at 200 µg/mL: read-out: Mean Inhibition % at 200 µg/ml ± SD
T1 construct: purchased Cayman Chemical Company 701080
T1 sequence (P35354 18-604): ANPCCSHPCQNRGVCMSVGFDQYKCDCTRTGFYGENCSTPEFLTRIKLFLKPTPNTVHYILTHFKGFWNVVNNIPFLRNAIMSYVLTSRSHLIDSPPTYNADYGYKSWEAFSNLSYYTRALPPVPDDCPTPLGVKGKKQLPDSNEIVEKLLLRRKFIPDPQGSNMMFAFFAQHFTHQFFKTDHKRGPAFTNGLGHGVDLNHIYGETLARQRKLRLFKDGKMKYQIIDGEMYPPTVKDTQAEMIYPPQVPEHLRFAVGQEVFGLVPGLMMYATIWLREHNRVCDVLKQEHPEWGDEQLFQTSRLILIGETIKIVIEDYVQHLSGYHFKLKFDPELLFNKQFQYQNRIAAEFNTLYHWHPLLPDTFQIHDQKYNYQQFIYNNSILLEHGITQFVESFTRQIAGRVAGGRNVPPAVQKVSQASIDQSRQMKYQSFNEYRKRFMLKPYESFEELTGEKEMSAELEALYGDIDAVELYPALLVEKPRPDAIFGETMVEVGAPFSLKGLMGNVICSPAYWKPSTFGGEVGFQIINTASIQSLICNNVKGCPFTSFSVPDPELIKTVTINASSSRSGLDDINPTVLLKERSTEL
Method: The compounds were resuspended in 100% DMSO at a final concentration of 10 mg/mL. […] The inhibitory activity was expressed as the inhibition percentage, which was determined by comparison with a control experiment. IC50 values were deduced from the curves.

[5] = In vitro cytotoxicity assay (LDH release); format: cell-based, human; settings: human
Method: The best-in-class compounds, including (4c), (4d), (6a), (6b), (6d), (6e), and (6g), which were recognized as antimicrobial and enzymatic inhibitors, were further examined for their cytotoxic effects on LoVo and HCT-116 cells of human colon cancer. This was carried out by determining the residual percentages of viable cells after being treated with the compounds at different concentrations (50, 100, 200, and 400 µg/mL), using triton X-100 (at concentration of 0.1%) in the assay medium and the assay as the positive and negative controls, respectively.
Samples were diluted in Dulbecco’s modified Eagles medium, consisting of 10% fetal bovine serum, added to cells grown and cultured for 24 h in a 5% CO2-humidified incubator at 37 °C. Then, the activity of lactate dehydrogenase released from damaged cells was determined in the collected supernatant aliquots using an ELISA end-point assay (Benchmark Plus, Bio-Rad, CA, USA). The 0.1% Triton X-100 in the assay medium and the assay medium only were used as positive and negative controls, respectively. Cell viability, expressed as a relative percentage of the OD values (at 550 nm) for compound-treated cells (final concentration of 200 µg) and the control, is shown as mean ± SD (n = 2).

[6] = HCT-116 colon cancer cells, read-out: Mean % Cell Viability ± SD CRC-HCT-116 cells
[7] = LoVo colon cancer cells, read-out: Mean % Cell Viability ± SD CRC-LoVo cells

SMILES	IC50 [1]	inhibition at 100 µg/mL [1]	inhibition at 200 µg/mL [1]	IC50 [2]	IC50 [3]	IC50 [4]	inhibition at 100 µg/mL (COX-2)	inhibition at 200 µg/mL (COX-2)	viability at 24 h, 200 µg/mL [5, 6]	viability at 24 h, 200 µg/mL [5, 7]	viability at 24 h, 200 µg/ml [5, 6]	viability at 24 h, 200 µg/ml [5, 7]	fold by which (6e) is more potent than the labelled compound (LDHA inhibition efficiency) ([1]; 200 µg/mL)	IC50 (COX-2)	fold decrease of LDHA inhibition efficiency relative to (6g) ([1]; 200 µg/mL, comparator 6g)	IC50 at 24 h ([5]; HCT-116 human colon cancer cells, HCT-116 cells)	IC50 at 24 h ([5]; LoVo human colon cancer cells, LoVo cells)
CCc1ccc(C=Nn2c(C)nc3ccc(F)cc3c2=O)s1 [Compound 6g, 3-[(5-Ethyl-thiophen-2-ylmethylene)-amino]-6-fluoro-2-methyl-3H-quinazolin-4-one]	334 µM	53.6%	89.8%	24.8 ± 1.77 µg/mL (≈ 78.5 µM)	19.9 ± 2.26 µg/mL (≈ 63.1 µM)	17.2 ± 1.77 µg/mL (≈ 54.7 µM)	28.8 ± 2.47%	48.6 ± 3.75%	86.5 ± 2.12%	88.2 ± 2.62%							
COc1cc(C=NNc2nc3ccccc3[nH]c2=O)cc(Cl)c1O [Compound 4a, 3-[N’-(3-Chloro-4-hydroxy-5-methoxy-benzylidene)-hydrazino]-1H-quinoxalin-2-one]		20.3 ± 1.63%	28.2%	15 ± 0.566 µg/mL (≈ 43.5 µM)	13.3 ± 0.849 µg/mL (≈ 38.6 µM)	27 ± 2.83 µg/mL (≈ 78.3 µM)	4.65 ± 0.495%	12.1%									
O=C(O)c1ccc(/C=N/Nc2nc3ccccc3[nH]c2=O)cc1 [Compound 4d, 4-[(3-Oxo-3,4-dihydro-quinoxalin-2-yl)-hydrazonomethyl]-benzoic acid]	362 µM	47.4 ± 3.96%	85%	30.6 ± 2.62 µg/mL (≈ 99.1 µM)	28.2 ± 1.77 µg/mL (≈ 91.6 µM)	10.8 µg/mL (≈ 35 µM)	14.4 ± 0.778%	28.9%			65.5 ± 3.54%	60 ± 4.24%					
Cc1nc2ccc(Cl)cc2c(=O)n1N [Compound 5b]		11.8 ± 1.06%	21.2%	13.6 ± 1.48 µg/mL (≈ 64.6 µM)	37 ± 2.83 µg/mL (≈ 176 µM)	27.5 ± 2.12 µg/mL (≈ 131 µM)	5.7 ± 0.99%	9.05%					3.6 fold				
COc1cc(C=NNc2nc3ccccc3[nH]c2=O)cc(I)c1O [Compound 4b, 3-[N’-(4-Hydroxy-3-iodo-5-methoxy-benzylidene)-hydrazino]-1H-quinoxalin-2-one]		27.4 ± 2.4%	35.4%	13.6 ± 0.849 µg/mL (≈ 31.2 µM)	40.6 ± 2.33 µg/mL (≈ 93.2 µM)	30.3 ± 2.4 µg/mL (≈ 69.5 µM)	12.3 ± 0.919%	21.1%									
COc1cc(C=Nn2c(C)nc3ccc(Cl)cc3c2=O)ccc1OCc1ccccc1 [Compound 6e, 3-[(4-Benzyloxy-3-methoxy-benzylidene)-amino]-6-chloro-2-methyl-3H-quinazolin-4-one]		44.8 ± 2.9%	76.8%	15.7 ± 0.919 µg/mL (≈ 36.1 µM)	12.8 ± 0.919 µg/mL (≈ 29.4 µM)	12.4 µg/mL (≈ 28.6 µM)	57.9%	100%	89 ± 2.83%	93.4 ± 4.81%				222 µM			
COc1cc(C=NNc2nc3ccccc3[nH]c2=O)cc([N+](=O)[O-])c1O [Compound 4c, 3-[N’-(4-Hydroxy-3-methoxy-5-nitro-benzylidene)-hydrazino]-1H-quinoxalin-2-one]		40.6 ± 2.33%	64.2%	12.7 ± 0.778 µg/mL (≈ 35.6 µM)	8.05 ± 0.778 µg/mL (≈ 22.7 µM)	9.6 µg/mL (≈ 27 µM)	36.5 ± 3.46%	61.1%	77.3 ± 3.25%	72.2 ± 4.45%							
COc1ccc2cc(/C=N/n3c(C)nc4ccc(Cl)cc4c3=O)ccc2c1 [Compound 6c, 6-Chloro-3-oro-3-[(6-methoxy-naphthalen-2-ylmethylene)-amino]-2-methyl-3H-quinazolin-4-one]		13.3 ± 0.919%	23%	26.9 ± 1.56 µg/mL (≈ 71.2 µM)	30.1 ± 0.636 µg/mL (≈ 79.5 µM)	20.4 ± 1.2 µg/mL (≈ 54.1 µM)	23.8 ± 2.55%	36.9 ± 1.63%					3.3 fold				
CCc1ccc(/C=N/n2c(C)nc3ccc(Cl)cc3c2=O)s1 [Compound 6f, 6-Chloro-3-oro-3-[(5-ethyl-thiophen-2-ylmethylene)-amino]-2-methyl-3H-quinazolin-4-one]		27.1 ± 1.48%	40%	33.4 ± 3.39 µg/mL (≈ 101 µM)	27.9 ± 1.56 µg/mL (≈ 84.1 µM)	22.6 ± 0.636 µg/mL (≈ 68 µM)	10 ± 1.41%	20.7%					1.9 fold		2.2 fold		
COc1ccc2cc(C=NNc3nc4ccccc4[nH]c3=O)ccc2c1 [Compound 4e, 3-[N’-(6-Methoxy-naphthalen-2-ylmethylene)-hydrazino]-1H-quinoxalin-2-one]		21.1 ± 2.19%	31.2%	31.4 ± 1.48 µg/mL (≈ 91.3 µM)	27.1 ± 1.84 µg/mL (≈ 78.7 µM)	18.2 ± 0.99 µg/mL (≈ 52.8 µM)	30.3 ± 1.84%	54%									
COc1cc2nc(C)n(N=Cc3ccc(OCc4ccccc4)c(OC)c3)c(=O)c2cc1OC [Compound 6d, 3-[(4-Benzyloxy-3-methoxy-benzylidene)-amino]-6,7-dimethoxy-2-methyl-3H-quinazolin-4-one]		31.2 ± 1.63%	44.4 ± 3.39%	18.4 ± 1.27 µg/mL (≈ 40 µM)	9 ± 0.99 µg/mL (≈ 19.6 µM)	15.2 ± 0.919 µg/mL (≈ 33 µM)	50.2%	97.5%	18.5%	26.8%			1.7 fold	215 µM		100 µg/mL (≈ 218 µM)	128 µg/mL (≈ 277 µM)
O=c1[nH]c2ccccc2[nH]c1=O [Compound 1]		33.8 ± 2.55%	68.2%	25.9 ± 0.778 µg/mL (≈ 159 µM)	19.4 ± 1.48 µg/mL (≈ 119 µM)	20.2 ± 1.06 µg/mL (≈ 125 µM)	30.9 ± 2.62%	48.1%									
NN=c1[nH]c2ccccc2[nH]c1=O [Compound 2, 3-hydrazineylidene-3,4-dihydro quinoxalin-2(1H)-one]		26.7 ± 1.84%	47.1%	13.7 ± 1.34 µg/mL (≈ 77.5 µM)	14.5 ± 0.99 µg/mL (≈ 82.3 µM)	13.6 ± 0.566 µg/mL (≈ 77.2 µM)	7.55 ± 0.778%	15.4 ± 2.19%									
CC1(C)S[C@@H]2[C@H](NC(=O)[C@H](N)c3ccccc3)C(=O)N2[C@H]1C(=O)O [Ampicillin, ampicillin, reference compound]				20.2 µg/mL (≈ 58 µM)	16.1 µg/mL (≈ 46.2 µM)	12.8 µg/mL (≈ 36.5 µM)											
